Data taken from PMC7230940 (Marine Drugs, 2020).
Positions of bridges follow the written chain, without caps; N, C: chain ends. Residues, ends and D or L forms follow the SMILES beside them.

biological target: T1, rat α6/α3β2β3 nAChRs (Rattus norvegicus, UniProt P04757+P12390+P43143); assay type: cell-based
T1 construct: remaining part of the rat nAChR α3 subunit (Chrna3, UniProt P04757 by own knowledge), fused after the α6 extracellular portion; expressed in transfected cells; host or cells: Xenopus oocytes injected with in vitro transcribed cRNA
T1 sequence (P04757 whole entry, looked up, the tested form may be a part): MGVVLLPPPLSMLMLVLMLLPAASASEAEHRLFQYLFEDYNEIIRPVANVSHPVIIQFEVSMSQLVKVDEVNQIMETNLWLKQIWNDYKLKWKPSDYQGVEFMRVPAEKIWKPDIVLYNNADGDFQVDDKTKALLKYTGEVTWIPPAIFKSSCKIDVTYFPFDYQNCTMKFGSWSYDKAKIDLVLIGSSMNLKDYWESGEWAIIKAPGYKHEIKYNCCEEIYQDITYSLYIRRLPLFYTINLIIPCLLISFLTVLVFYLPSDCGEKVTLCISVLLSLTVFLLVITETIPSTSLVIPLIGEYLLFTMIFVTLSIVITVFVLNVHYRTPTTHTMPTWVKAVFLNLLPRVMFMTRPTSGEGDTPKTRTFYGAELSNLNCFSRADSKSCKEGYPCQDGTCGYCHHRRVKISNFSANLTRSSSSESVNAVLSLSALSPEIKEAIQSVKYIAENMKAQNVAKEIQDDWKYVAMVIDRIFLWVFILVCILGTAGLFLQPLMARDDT
T1 sequence (P12390 whole entry, looked up, the tested form may be a part): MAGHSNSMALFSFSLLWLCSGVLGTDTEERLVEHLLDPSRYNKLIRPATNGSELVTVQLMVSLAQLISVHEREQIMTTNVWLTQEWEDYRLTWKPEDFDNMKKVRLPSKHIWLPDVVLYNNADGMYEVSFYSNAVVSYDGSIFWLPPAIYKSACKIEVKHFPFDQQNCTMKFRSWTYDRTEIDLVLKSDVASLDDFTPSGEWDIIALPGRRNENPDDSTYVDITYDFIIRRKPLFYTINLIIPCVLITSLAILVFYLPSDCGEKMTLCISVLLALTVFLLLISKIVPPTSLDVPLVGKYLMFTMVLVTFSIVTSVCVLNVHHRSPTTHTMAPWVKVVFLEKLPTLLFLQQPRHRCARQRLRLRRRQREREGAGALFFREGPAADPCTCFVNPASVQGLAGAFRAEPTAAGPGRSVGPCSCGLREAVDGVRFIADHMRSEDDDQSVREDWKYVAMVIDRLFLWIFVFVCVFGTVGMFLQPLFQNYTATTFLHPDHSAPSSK
T1 sequence (P43143 whole entry, looked up, the tested form may be a part): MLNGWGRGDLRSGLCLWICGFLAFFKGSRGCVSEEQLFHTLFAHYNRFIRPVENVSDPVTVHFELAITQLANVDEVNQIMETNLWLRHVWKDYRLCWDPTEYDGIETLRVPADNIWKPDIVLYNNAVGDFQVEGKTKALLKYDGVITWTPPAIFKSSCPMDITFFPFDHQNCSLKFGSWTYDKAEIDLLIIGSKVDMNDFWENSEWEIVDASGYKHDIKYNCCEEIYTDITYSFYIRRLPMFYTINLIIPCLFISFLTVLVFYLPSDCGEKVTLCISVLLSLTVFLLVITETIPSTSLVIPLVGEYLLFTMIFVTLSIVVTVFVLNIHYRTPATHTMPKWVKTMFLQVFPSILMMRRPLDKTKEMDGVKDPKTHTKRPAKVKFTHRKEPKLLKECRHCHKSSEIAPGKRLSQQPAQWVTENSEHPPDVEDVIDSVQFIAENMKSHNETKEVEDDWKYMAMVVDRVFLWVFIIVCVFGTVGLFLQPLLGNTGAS

Row | SMILES | inhibition of α6β2* nAChRs
1 | CC(C)C[C@@H]1NC(=O)[C@H](CC(=O)O)NC(=O)[C@@H]2CCCN2C(=O)[C@H](Cc2c[nH]cn2)NC(=O)[C@H](CCCCN)NC(=O)[C@H](CC(N)=O)NC(=O)[C@H](CCCNC(=N)N)NC(=O)[C@@H]2CSSC[C@H](NC(=O)CN)C(=O)N[C@@H](CSSC[C@@H](C(N)=O)NC1=O)C(=O)N[C@@H](CO)C(=O)N[C@@H](CC(=O)O)C(=O)N1CCC[C@H]1C(=O)N1CCC[C@H]1C(=O)N2 [TxIB, α-Conotoxin TxIB, reference compound] (H-GCCSDPPCRNKHPDLC-NH2; disulfide 2-8, 3-16) | 42%
2 | CC(C)C[C@@H]1NC(=O)[C@H](CC(=O)O)NC(=O)[C@@H]2CCCN2C(=O)[C@H](Cc2c[nH]cn2)NC(=O)[C@H](CCCCN)NC(=O)[C@H](CC(N)=O)NC(=O)[C@H](CCCNC(=N)N)NC(=O)[C@@H]2CSSC[C@@H]3NC(=O)CNC(=O)CNC(=O)[C@H](C)NC(=O)[C@H](C)NC(=O)CNC(=O)[C@H](CSSC[C@H](NC3=O)C(=O)N[C@@H](CO)C(=O)N[C@@H](CC(=O)O)C(=O)N3CCC[C@H]3C(=O)N3CCC[C@H]3C(=O)N2)NC1=O [cTxIB-4] (cyclo(AAGGCCSDPPCRNKHPDLCG); disulfide 5-11, 6-19) | about 35%
3 | CC(C)C[C@@H]1NC(=O)[C@H](CC(=O)O)NC(=O)[C@@H]2CCCN2C(=O)[C@H](Cc2c[nH]cn2)NC(=O)[C@H](CCCCN)NC(=O)[C@H](CC(N)=O)NC(=O)[C@H](CCCNC(=N)N)NC(=O)[C@@H]2CSSC[C@@H]3NC(=O)CNC(=O)CNC(=O)[C@H](C)NC(=O)[C@H](C)NC(=O)CNC(=O)CNC(=O)[C@H](CSSC[C@H](NC3=O)C(=O)N[C@@H](CO)C(=O)N[C@@H](CC(=O)O)C(=O)N3CCC[C@H]3C(=O)N3CCC[C@H]3C(=O)N2)NC1=O [cTxIB-5] (cyclo(AAGGCCSDPPCRNKHPDLCGG); disulfide 5-11, 6-19) | ~42%
4 | CC(C)C[C@@H]1NC(=O)[C@H](CC(=O)O)NC(=O)[C@@H]2CCCN2C(=O)[C@H](Cc2c[nH]cn2)NC(=O)[C@H](CCCCN)NC(=O)[C@H](CC(N)=O)NC(=O)[C@H](CCCNC(=N)N)NC(=O)[C@@H]2CSSC[C@@H]3NC(=O)CNC(=O)CNC(=O)[C@H](C)NC(=O)[C@H](C)NC(=O)CNC(=O)[C@H](C)NC(=O)CNC(=O)[C@H](CSSC[C@H](NC3=O)C(=O)N[C@@H](CO)C(=O)N[C@@H](CC(=O)O)C(=O)N3CCC[C@H]3C(=O)N3CCC[C@H]3C(=O)N2)NC1=O [cTxIB-6] (cyclo(AAGGCCSDPPCRNKHPDLCGAG); disulfide 5-11, 6-19) | ~48%
5 | CC(C)C[C@@H]1NC(=O)[C@H](CC(=O)O)NC(=O)[C@@H]2CCCN2C(=O)[C@H](Cc2c[nH]cn2)NC(=O)[C@H](CCCCN)NC(=O)[C@H](CC(N)=O)NC(=O)[C@H](CCCNC(=N)N)NC(=O)[C@@H]2CSSC[C@@H]3NC(=O)CNC(=O)CNC(=O)[C@H](C)NC(=O)CNC(=O)[C@H](C)NC(=O)[C@H](C)NC(=O)CNC(=O)CNC(=O)[C@H](CSSC[C@H](NC3=O)C(=O)N[C@@H](CO)C(=O)N[C@@H](CC(=O)O)C(=O)N3CCC[C@H]3C(=O)N3CCC[C@H]3C(=O)N2)NC1=O [cTxIB-7] (cyclo(AAGAGGCCSDPPCRNKHPDLCGG); disulfide 7-13, 8-21) | ~41%
